Results on one compound are retold here after ChEMBL document CHEMBL4811240, “Discovery of N-substituted sulfamoylbenzamide derivatives as novel inhibitors of STAT3 signaling pathway based on Niclosamide” (Eur J Med Chem, 2021).

Active and inactive are the calls of the source. The calls are words filed in the database; no cut-off is given here.

In test [1] the target is Platelet-derived growth factor receptor beta (Homo sapiens) (UniProt P09619). The test is described as follows: Inhibition of PDGFRbeta (557 to 1106 residues) (unknown origin) expressed in Sf21 at 10 uM preincubated for 10 mins followed by peptide substrate addition relative to control.
Platelet-derived growth factor receptor beta (Homo sapiens), sequence (P09619 whole entry, the tested form may be a part): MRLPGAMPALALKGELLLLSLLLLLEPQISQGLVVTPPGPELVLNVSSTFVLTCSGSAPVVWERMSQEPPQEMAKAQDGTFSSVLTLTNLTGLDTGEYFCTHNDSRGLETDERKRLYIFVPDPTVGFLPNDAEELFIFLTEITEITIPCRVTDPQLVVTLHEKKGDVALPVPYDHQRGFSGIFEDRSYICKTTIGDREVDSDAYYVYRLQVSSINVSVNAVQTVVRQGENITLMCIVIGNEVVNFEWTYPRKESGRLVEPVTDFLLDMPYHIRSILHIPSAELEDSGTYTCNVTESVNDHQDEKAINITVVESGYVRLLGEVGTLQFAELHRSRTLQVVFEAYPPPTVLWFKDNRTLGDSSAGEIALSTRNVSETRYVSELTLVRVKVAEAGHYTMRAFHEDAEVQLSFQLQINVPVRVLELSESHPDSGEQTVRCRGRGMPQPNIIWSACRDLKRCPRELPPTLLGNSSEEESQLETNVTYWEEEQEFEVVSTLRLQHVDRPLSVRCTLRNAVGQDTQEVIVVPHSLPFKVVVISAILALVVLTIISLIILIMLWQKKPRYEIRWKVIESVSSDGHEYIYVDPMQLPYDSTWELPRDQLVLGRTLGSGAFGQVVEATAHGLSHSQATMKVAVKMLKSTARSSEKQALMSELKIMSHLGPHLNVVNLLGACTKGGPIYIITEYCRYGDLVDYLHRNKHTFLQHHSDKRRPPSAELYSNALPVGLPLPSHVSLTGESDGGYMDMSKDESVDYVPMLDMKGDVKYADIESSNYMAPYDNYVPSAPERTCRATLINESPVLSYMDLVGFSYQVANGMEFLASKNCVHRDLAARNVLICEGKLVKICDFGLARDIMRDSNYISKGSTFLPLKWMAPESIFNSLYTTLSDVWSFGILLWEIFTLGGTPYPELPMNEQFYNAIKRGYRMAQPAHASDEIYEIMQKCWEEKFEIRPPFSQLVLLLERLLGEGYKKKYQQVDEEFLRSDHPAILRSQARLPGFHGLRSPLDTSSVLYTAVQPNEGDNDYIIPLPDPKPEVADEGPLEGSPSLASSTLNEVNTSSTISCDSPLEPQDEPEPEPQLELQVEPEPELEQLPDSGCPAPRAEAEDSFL
Test [2] has as its target Signal transducer and activator of transcription 3 (Homo sapiens) (UniProt P40763). Description: Inhibition of STAT3 promoter activity in human MDA-MB-231 cells at 0.5 uM incubated for 24 hrs by dual luciferase reporter assay. Format: cell-based. (In general: In a reporter assay the amount or activity of a reporter protein is the signal.)
Test [3] concerns MDA-MB-231. The test is described as follows: Induction of apoptosis in human MDA-MB-231 cells assessed as decrease in Bcl-xl expression at 1 to 10 uM incubated for 24 hrs by Western blot analysis. Format: functional, cell-based. To be noted: dose 1-10 µM. On the technique in general: A western blot detects proteins with antibodies after separation by electrophoresis.
The subject of test [4] is MDA-MB-231. The test is described as follows: Inhibition of human MDA-MB-231 cells migration a 1000 nM after 24 hrs by crystal violet staining based transwell migration assay. Format: functional, cell-based.

Signal transducer and activator of transcription 3 (Homo sapiens), sequence (P40763 whole entry): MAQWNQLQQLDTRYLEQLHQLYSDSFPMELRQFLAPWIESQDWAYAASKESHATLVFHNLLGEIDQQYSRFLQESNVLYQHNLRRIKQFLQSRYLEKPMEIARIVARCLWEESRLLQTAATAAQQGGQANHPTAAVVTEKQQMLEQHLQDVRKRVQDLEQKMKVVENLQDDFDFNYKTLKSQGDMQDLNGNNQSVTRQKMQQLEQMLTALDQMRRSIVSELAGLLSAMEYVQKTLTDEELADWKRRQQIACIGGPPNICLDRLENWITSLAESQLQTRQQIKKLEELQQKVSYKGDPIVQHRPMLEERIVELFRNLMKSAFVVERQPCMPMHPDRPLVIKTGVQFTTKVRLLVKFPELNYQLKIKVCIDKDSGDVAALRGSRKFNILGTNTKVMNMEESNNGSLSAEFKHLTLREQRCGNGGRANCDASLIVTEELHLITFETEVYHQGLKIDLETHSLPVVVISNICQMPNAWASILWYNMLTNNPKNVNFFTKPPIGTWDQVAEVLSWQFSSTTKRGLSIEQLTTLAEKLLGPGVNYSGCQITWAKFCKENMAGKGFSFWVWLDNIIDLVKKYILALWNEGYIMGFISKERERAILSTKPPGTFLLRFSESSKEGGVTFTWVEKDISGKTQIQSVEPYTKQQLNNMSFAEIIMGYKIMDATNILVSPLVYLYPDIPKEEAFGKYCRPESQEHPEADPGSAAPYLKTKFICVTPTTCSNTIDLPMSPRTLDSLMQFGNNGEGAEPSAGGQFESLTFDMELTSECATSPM

For the compound `CC(C)(C)OC(=O)c1ccc(NC(=O)c2ccc(Cl)c(S(N)(=O)=O)c2)cc1`, the inhibition in test [1] is -1.19%; in test [2] it was 80.6%. The result in the test with MDA-MB-231 [3] was Active. Moreover, in the test with MDA-MB-231 [4], the inhibition entry is “Active”.

As a reminder, the inhibition is the drop in the measured response relative to a control, in per cent.
